Test results published in patent publication US7750017B2, “Heterocycles” (Bayer Schering Pharma Aktiengesellschaft, priority 2004, dated 2010).

Assays:
[1] = system: A431 cells [human epidermoid carcinoma, overexpressing HER1 (EGFR, ErbB1)]; test: In vitro tumor cell proliferation assay (Cell Titer-Glo luminescent cell viability), A431 cells; format: cell-based; conditions: A-431, 72 h, 72 hours of drug exposure, Cell Titer-Glo readout, read-out: IC50, anti-proliferative activity in A431 cells
Excerpt: (§1) The utility of the compounds of the present invention can be illustrated, for example, by their activity in vitro in the in vitro tumor cell proliferation assay described below. The link between activity in tumor cell proliferation assays in vitro and anti-tumor activity in the clinical setting has been very well established in the art.
(§2) The following assay is one of the methods by which compound activity relating to treatment of the disorders identified herein can be determined.
(§3) The tumor cell proliferation assay used to test the compounds of the present invention involves a readout called Cell Titer-Glow® Luminescent Cell Viability Assay developed by Promega® (Cunningham, B A “A Growing Issue: Cell Proliferation Assays, Modern kits ease quantification of cell growth” The Scientist 2001, 15(13), 26, and Crouch, S P et al., “The use of ATP bioluminescence as a measure of cell proliferation and cytotoxicity” Journal of Immunological Methods 1993, 160, 81-88), that measures inhibition of cell proliferation. Generation of a luminescent signal corresponds to the amount of ATP present, which is directly proportional to the number of metabolically active (proliferating) cells.
(§4) A431 cells [human epidermoid carcinoma, ATCC # […], overexpressing HER1 (EGFR, ErbB1)] and BT474 [human breast carcinoma, ATCC # CRL-1555, overexpressing HER2 (ErbB2)] were plated at a density of 2.5×10^3 cells/well in 96 well black-clear bottom tissue culture plates in RPMI media with 10% Fetal Bovine Serum and incubated at 37° C. Twenty-four hours later, test compounds are added at a final concentration range from as high 100 μm to as low 64 pM depend on the activities of the tested compounds in serial dilutions at a final DMSO concentration of 0.1%. Cells were incubated for 72 hours at 37° C. in complete growth media after addition of the test compound. After 72 hours of drug exposure, the plates were equilibrated to room temperature for approximately 30 min. Then, using a Promega Cell Titer Glo Luminescent® assay kit, lysis buffer containing 100 microliters of the enzyme luciferase and its substrate, luciferin mixture, was added to each well. The plates were mixed for 2 min on orbital shaker to ensure cell lysis and incubated for 10 min at room temperature to stabilize luminescence signal. The samples were read on VICTOR 2 using Luminescence protocol, and analyzed with Analyze5 software to generate IC50 values.

[2] = system: BT474 [human breast carcinoma, overexpressing HER2 (ErbB2)]; test: In vitro tumor cell proliferation assay (Cell Titer-Glo luminescent cell viability), BT474 cells; format: cell-based; conditions: BT-474, 72 h, 72 hours of drug exposure, Cell Titer-Glo readout, read-out: IC50, anti-proliferative activity in BT474 cells
Excerpt: as §1, §2, §3, §4

SMILES	IC50 [1]	IC50 [2]
Fc1cccc(COc2ccc(Nc3ncnc4sc5cc(N6CCOCC6)ccc5c34)cc2Cl)c1 [Example 44, [3-Chloro-4-(3-fluoro-benzyloxy)-phenyl]-(7-morpholin-4-yl-benzo[4,5]thieno[2,3-d]pyrimidin-4-yl)-amine]	≤ 50 µM	≤ 0.5 µM
CCOC(=O)C(C(=O)OCC)c1ccc2c(c1)sc1ncnc(Nc3ccc(OCc4cccc(F)c4)c(Cl)c3)c12 [Example 45, 2-{4-[3-Chloro-4-(3-fluoro-benzyloxy)-phenylamino]-benzo[4,5]thieno[2,3-d]pyrimidin-7-yl}-malonic acid diethyl ester]	≤ 50 µM	≤ 5 µM
OCC(CO)c1ccc2c(c1)sc1ncnc(Nc3ccc(OCc4cccc(F)c4)c(Cl)c3)c12 [Example 46, 2-{4-[3-Chloro-4-(3-fluoro-benzyloxy)-phenylamino]-benzo[4,5]thieno[2,3-]pyrimidin-7-yl}-propane-1,3-diol]	≤ 5 µM	≤ 0.5 µM
COC(=O)/C=C/c1ccc2c(c1)sc1ncnc(Nc3ccc(OCc4cccc(F)c4)c(Cl)c3)c12 [Example 47, methyl (2E)-3-[4-({3-chloro-4-[(3-fluorobenzyl)oxy]phenyl}amino)[1]benzothieno[2,3-d]pyrimidin-7-yl]acrylate]	≤ 5 µM	≤ 5 µM
O=C(O)/C=C/c1ccc2c(c1)sc1ncnc(Nc3ccc(OCc4cccc(F)c4)c(Cl)c3)c12 [Example 48, (2E)-3-[4-({3-chloro-4-[(3-fluorobenzyl)oxy]phenyl}amino)[1]benzothieno[2,3-d]pyrimidin-7-yl]acrylic acid]	≤ 50 µM	≤ 5 µM
CCN1CCN(C(=O)/C=C/c2ccc3c(c2)sc2ncnc(Nc4ccc(OCc5cccc(F)c5)c(Cl)c4)c23)CC1 [Example 49, N-{3-chloro-4-[(3-fluorobenzyl)oxy]phenyl}-7-[(1E)-3-(4-ethylpiperazin-1-yl)-3-oxoprop-1-en-1-yl][1]benzothieno[2,3-d]pyrimidin-4-amine]	≤ 5 µM	≤ 5 µM
COCCNC(=O)/C=C/c1ccc2c(c1)sc1ncnc(Nc3ccc(OCc4cccc(F)c4)c(Cl)c3)c12 [Example 50, (2E)-3-[4-({3-chloro-4-[(3-fluorobenzyl)oxy]phenyl}amino) [1]benzothieno[2,3-d]pyrimidin-7-yl]-N-(2-methoxyethyl)acrylamide]	≤ 50 µM	≤ 0.5 µM
CN1CCN(C(=O)/C=C/c2ccc3c(c2)sc2ncnc(Nc4ccc(OCc5cccc(F)c5)c(Cl)c4)c23)CC1 [Example 51, N-{3-chloro-4-[(3-fluorobenzyl)oxy]phenyl}-7-[(1E)-3-(4-methylpiperazin-1-yl)-3-oxoprop-1-en-1-yl][1]benzothieno [2,3-d]pyrimidin-4-amine]	≤ 5 µM	≤ 5 µM
CN(C)[C@H]1CCN(C(=O)/C=C/c2ccc3c(c2)sc2ncnc(Nc4ccc(OCc5cccc(F)c5)c(Cl)c4)c23)C1 [Example 52, N-{3-chloro-4-[(3-fluorobenzyl)oxy]phenyl}-7-{(1E)-3-[(3S)-3-(dimethylamino)pyrrolidin-1-yl]-3-oxoprop-1-en-1-yl}[1]benzothieno[2,3-d] pyrimidin-4-amine]	≤ 5 µM	≤ 5 µM
CN(C)CCNC(=O)/C=C/c1ccc2c(c1)sc1ncnc(Nc3ccc(OCc4cccc(F)c4)c(Cl)c3)c12 [Example 54, (2E)-3-[4-({3-chloro-4-[(3-fluorobenzyl)oxy]phenyl}amino) [1]benzothieno[2,3-d]pyrimidin-7-yl]-N-[2-(dimethylamino)ethyl]acrylamide]	≤ 50 µM	≤ 5 µM
CCN1CCN(C(=O)C(O)C(O)c2ccc3c(c2)sc2ncnc(Nc4ccc(OCc5cccc(F)c5)c(Cl)c4)c23)CC1 (stereo not shown) [Example 56, 1-[4-({3-chloro-4-[(3-fluorobenzyl)oxy]phenyl}amino)[1]benzothieno[2,3-d]pyrimidin-7-yl]-3-(4-ethylpiperazin-1-yl)-3-oxopropane-1,2-diol]	≤ 50 µM	≤ 5 µM
CCN1CCN(C(=O)[C@H](O)[C@@H](O)c2ccc3c(c2)sc2ncnc(Nc4ccc(OCc5cccc(F)c5)c(Cl)c4)c23)CC1 [Example 57, (1S,2R)-1-[4-({3-chloro-4-[(3-fluorobenzyl)oxy]phenyl}amino) [1]benzothieno[2,3-d]pyrimidin-7-yl]-3-(4-ethylpiperazin-1-yl)-3-oxopropane-1,2-diol]	≤ 50 µM	≤ 5 µM
CCN1CCN(C(=O)[C@@H](O)[C@H](O)c2ccc3c(c2)sc2ncnc(Nc4ccc(OCc5cccc(F)c5)c(Cl)c4)c23)CC1 [Example 58, (1R,2S)-1-[4-({3-chloro-4-[(3-fluorobenzyl)oxy]phenyl}amino)[1]benzothieno[2,3-d]pyrimidin-7-yl]-3-(4-ethylpiperazin-1-yl)-3-oxopropane-1,2-diol]	≤ 50 µM	≤ 5 µM
CN(C)[C@H]1CCN(C(=O)C(O)C(O)c2ccc3c(c2)sc2ncnc(Nc4ccc(OCc5cccc(F)c5)c(Cl)c4)c23)C1 (stereo partly drawn) [Example 59, 1-[4-({3-chloro-4-[(3-fluorobenzyl)oxy]phenyl}amino) [1]benzothieno[2,3-d]pyrimidin-7-yl]-3-[(3S)-3-(dimethylamino)pyrrolidin-1-yl]-3-oxopropane-1,2-diol]	≤ 50 µM	≤ 5 µM
CS(=O)(=O)CCNC(=O)C(O)C(O)c1ccc2c(c1)sc1ncnc(Nc3ccc(OCc4cccc(F)c4)c(Cl)c3)c12 (stereo not shown) [Example 60, 3-[4-({3-chloro-4-[(3-fluorobenzyl)oxy]phenyl}amino) [1]benzothieno[2,3-d]pyrimidin-7-yl]-2,3-dihydroxy-N-[2-(methylsulfonyl)ethyl]propanamide]	≤ 50 µM	≤ 0.5 µM
OC/C=C/c1ccc2c(c1)sc1ncnc(Nc3ccc(OCc4cccc(F)c4)c(Cl)c3)c12 [Example 61, (2E)-3-[4-({3-chloro-4-[(3-fluorobenzyl)oxy]phenyl}amino)[1]benzothieno[2,3-d]pyrimidin-7-yl]prop-2-en-1-ol]	≤ 50 µM	≤ 0.5 µM
OCC(O)C(O)c1ccc2c(c1)sc1ncnc(Nc3ccc(OCc4cccc(F)c4)c(Cl)c3)c12 (stereo not shown) [Example 62, 1-[4-({3-chloro-4-[(3-fluorobenzyl)oxy]phenyl}amino)[1]benzothieno[2,3-d]pyrimidin-7-yl]propane-1,2,3-triol]	≤ 5 µM	≤ 0.5 µM
OC[C@H](O)[C@@H](O)c1ccc2c(c1)sc1ncnc(Nc3ccc(OCc4cccc(F)c4)c(Cl)c3)c12 [Example 63, (1S,2S)-1-[4-({3-chloro-4-[(3-fluorobenzyl)oxy]phenyl}amino) [1]benzothieno[2,3-d]pyrimidin-7-yl]propane-1,2,3-triol]	≤ 5 µM	≤ 0.5 µM
OC[C@@H](O)[C@H](O)c1ccc2c(c1)sc1ncnc(Nc3ccc(OCc4cccc(F)c4)c(Cl)c3)c12 [Example 64, (1R,2R)-1-[4-({3-chloro-4-[(3-fluorobenzyl)oxy]phenyl}amino)[1]benzothieno[2,3-d]pyrimidin-7-yl]propane-1,2,3-triol]	≤ 5 µM	≤ 0.5 µM
O=C(O)CCc1ccc2c(c1)sc1ncnc(Nc3ccc(OCc4cccc(F)c4)c(Cl)c3)c12 [Example 65, 3-[4-({3-chloro-4-[(3-fluorobenzyl)oxy]phenyl}amino)[1]benzothieno[2,3-d]pyrimidin-7-yl]propanoic acid]	≤ 50 µM	≤ 5 µM
CN1CCN(C(=O)CCc2ccc3c(c2)sc2ncnc(Nc4ccc(OCc5cccc(F)c5)c(Cl)c4)c23)CC1 [Example 66, N-{3-chloro-4-[(3-fluorobenzyl)oxy]phenyl}-7-[3-(4-methylpiperazin-1-yl)-3-oxopropyl][1]benzothieno[2,3-d]pyrimidin-4-amine]	≤ 50 µM	≤ 5 µM
CCN1CCN(C(=O)CCc2ccc3c(c2)sc2ncnc(Nc4ccc(OCc5cccc(F)c5)c(Cl)c4)c23)CC1 [Example 67, N-{3-chloro-4-[(3-fluorobenzyl)oxy]phenyl}-7-[3-(4-ethylpiperazin-1-yl)-3-oxopropyl][1]benzothieno[2,3-d] pyrimidin-4-amine]	≤ 50 µM	≤ 5 µM
CN(C)[C@H]1CCN(C(=O)CCc2ccc3c(c2)sc2ncnc(Nc4ccc(OCc5cccc(F)c5)c(Cl)c4)c23)C1 [Example 68, N-{3-chloro-4-[(3-fluorobenzyl)oxy]phenyl}-7-{3-[(3S)-3-(dimethylamino)pyrrolidin-1-yl]-3-oxopropyl} [1]benzothieno[2,3-d]pyrimidin-4-amine]	≤ 5 µM	≤ 5 µM
